Experiment [1] concerns the target JAK3 kinase (Mus musculus (Mouse), UniProt Q62137). Kind of experiment: JAK3-mediated cell assay (HT-2/IL-2 assay), STAT5 phosphorylation HTRF. In kind it is cell-based. The following applies: STAT5 phosphorylation induced by IL-2 (20 ng/ml, 10 minutes) in HT-2 cells, compound treatment 30 minutes. As for the experimental part:
The inhibitory activities against JAK3 kinase at the cellular level were measured for the compounds prepared in the Examples through in vitro analysis of STAT5 phosphorylation induced by IL-2 stimulation in HT-2 cells. Specifically, STAT5 phosphorylation was analyzed using HTRF® phospho-STAT5 (Tyr694) assay kit (Cisbio, 64AT5PEG), which was purchased from Cisbio. HT-2 cells were cultured for 2 hours in growth factor-free medium. The cultured HT-2 cells were dispensed into 96-well plates by 50 ul so as to be a density of 2.5×10^5 cells/well. The compounds prepared in the previous Examples were prepared so as to be finally a 0.3% DMSO aqueous solution, and HT-2 cells was treated with the compounds for 30 minutes. After the compound treatment, IL-2 was prepared so as to be finally a concentration of 20 ng/ml, and HT-2 cells was treated for 10 minutes. The cells were then disrupted by treating lysis buffers for 30 minutes. The level of STAT5 phosphorylation was measured according to the instructions of HTRF® phospho-STAT5 assay kit, and the inhibitory activity of the compounds according to the invention was calculated. For the analysis of the results of each compound, Microsoft Excel was used, and IC50 values were calculated by SigmaPlot software.
Background: TR-FRET usually uses a lanthanide donor and a delayed reading to cut background.

Experiment [2] concerns the target human JAK3 (Homo sapiens (Human), UniProt P52333). The experiment can be described thus: JAK3 kinase inhibitory activity, ADP Glo kinase assay. The format is biochemical. The following applies: recombinant purified human JAK3, ATP 5 uM, Poly(Glu4,Tyr1) peptide, 1 hour 30° C. As for the experimental part:
JAK3 and BTK kinases inhibitory activities were measured for the compounds prepared in the Examples through in vitro analysis on the ADP Glow (Glo) platform.
Specifically, the inhibitory activities against JAK3 and BTK kinase were measured using a JAK3 kinase assay kit (Promega, V9441) and a BTK kinase assay kit (Promega, V9071) which were purchased from Promega. […] After incubation (30° C.) for 1 hour, equivalent volume (25 uL per reaction) of ADP Glo was added and incubated (30° C.) for 40 minutes at room temperature. Then, a kinase detection reagent (50 uL per reaction) was added and incubated (30° C.) for 30 minutes at room temperature. The kinase activity was measured by chemiluminescence according to the instructions of ADP Glow kinase assay kit, and the inhibitory activity of the compounds according to the present disclosure was calculated.
For orientation: ADP-Glo turns the ADP formed in a reaction into a luminescent signal.

Experiment [3] deals with human BTK (Homo sapiens (Human), UniProt Q06187). The experiment can be described thus: BTK kinase inhibitory activity, ADP Glo kinase assay.
Where [4] appears, read: read-out: BTK IC50, recombinant purified human BTK, ATP 10 uM, Poly(Glu4,Tyr1) peptide, 1 hour 30° C.

Read-outs that look alike come from different tables or passages of the source.

The record followed here is patent US11339167B2, “Substituted piperidines as kinase inhibitors” (Daewoong Pharmaceutical Co., Ltd., priority 2017, dated 2022).

Chain of JAK3 kinase (Q62137 whole entry): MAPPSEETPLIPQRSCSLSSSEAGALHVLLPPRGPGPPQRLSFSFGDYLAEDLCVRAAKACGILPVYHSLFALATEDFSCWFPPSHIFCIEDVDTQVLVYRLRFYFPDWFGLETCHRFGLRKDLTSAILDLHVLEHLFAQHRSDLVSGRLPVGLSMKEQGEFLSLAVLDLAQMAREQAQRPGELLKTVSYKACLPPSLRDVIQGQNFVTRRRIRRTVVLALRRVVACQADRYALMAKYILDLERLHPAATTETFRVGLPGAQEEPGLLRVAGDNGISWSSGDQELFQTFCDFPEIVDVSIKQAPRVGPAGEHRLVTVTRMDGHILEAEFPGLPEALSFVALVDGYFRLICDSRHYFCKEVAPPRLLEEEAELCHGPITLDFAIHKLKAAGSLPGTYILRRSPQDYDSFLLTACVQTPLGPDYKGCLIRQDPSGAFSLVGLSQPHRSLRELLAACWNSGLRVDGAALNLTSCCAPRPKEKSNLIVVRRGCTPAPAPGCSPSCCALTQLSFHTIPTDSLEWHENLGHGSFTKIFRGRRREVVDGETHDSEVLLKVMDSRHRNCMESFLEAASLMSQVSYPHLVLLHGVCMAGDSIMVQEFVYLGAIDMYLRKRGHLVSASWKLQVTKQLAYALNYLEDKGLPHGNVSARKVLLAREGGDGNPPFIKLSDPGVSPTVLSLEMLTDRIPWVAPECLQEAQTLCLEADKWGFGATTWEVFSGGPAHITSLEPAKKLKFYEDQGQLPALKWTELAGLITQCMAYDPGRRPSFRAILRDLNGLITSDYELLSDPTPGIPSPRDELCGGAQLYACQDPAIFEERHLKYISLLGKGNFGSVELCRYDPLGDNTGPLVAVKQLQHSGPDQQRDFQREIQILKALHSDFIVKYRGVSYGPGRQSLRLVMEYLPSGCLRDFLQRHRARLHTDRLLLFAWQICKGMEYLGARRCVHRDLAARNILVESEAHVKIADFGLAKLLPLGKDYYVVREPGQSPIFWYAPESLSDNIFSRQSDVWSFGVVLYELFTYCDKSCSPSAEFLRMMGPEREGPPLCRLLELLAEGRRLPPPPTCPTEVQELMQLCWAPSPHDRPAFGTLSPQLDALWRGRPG
Chain of human BTK (Q06187 whole entry): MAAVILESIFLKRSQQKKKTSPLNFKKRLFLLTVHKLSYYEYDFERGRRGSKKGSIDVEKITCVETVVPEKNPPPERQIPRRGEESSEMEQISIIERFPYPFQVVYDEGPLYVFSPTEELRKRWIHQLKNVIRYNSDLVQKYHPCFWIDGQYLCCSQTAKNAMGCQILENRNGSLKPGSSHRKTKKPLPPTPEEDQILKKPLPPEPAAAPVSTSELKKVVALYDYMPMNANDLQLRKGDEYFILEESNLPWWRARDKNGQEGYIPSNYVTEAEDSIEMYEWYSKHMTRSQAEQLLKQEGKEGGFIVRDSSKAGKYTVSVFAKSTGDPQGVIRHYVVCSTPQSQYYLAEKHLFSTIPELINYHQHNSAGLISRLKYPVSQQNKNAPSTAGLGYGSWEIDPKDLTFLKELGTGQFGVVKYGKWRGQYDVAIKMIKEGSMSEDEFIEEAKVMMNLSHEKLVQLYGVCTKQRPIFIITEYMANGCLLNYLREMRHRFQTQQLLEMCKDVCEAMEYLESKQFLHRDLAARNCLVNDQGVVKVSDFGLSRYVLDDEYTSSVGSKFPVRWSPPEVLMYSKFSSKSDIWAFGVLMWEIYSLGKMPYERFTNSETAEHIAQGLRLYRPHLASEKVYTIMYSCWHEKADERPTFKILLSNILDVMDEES
Chain of human JAK3 (P52333 whole entry): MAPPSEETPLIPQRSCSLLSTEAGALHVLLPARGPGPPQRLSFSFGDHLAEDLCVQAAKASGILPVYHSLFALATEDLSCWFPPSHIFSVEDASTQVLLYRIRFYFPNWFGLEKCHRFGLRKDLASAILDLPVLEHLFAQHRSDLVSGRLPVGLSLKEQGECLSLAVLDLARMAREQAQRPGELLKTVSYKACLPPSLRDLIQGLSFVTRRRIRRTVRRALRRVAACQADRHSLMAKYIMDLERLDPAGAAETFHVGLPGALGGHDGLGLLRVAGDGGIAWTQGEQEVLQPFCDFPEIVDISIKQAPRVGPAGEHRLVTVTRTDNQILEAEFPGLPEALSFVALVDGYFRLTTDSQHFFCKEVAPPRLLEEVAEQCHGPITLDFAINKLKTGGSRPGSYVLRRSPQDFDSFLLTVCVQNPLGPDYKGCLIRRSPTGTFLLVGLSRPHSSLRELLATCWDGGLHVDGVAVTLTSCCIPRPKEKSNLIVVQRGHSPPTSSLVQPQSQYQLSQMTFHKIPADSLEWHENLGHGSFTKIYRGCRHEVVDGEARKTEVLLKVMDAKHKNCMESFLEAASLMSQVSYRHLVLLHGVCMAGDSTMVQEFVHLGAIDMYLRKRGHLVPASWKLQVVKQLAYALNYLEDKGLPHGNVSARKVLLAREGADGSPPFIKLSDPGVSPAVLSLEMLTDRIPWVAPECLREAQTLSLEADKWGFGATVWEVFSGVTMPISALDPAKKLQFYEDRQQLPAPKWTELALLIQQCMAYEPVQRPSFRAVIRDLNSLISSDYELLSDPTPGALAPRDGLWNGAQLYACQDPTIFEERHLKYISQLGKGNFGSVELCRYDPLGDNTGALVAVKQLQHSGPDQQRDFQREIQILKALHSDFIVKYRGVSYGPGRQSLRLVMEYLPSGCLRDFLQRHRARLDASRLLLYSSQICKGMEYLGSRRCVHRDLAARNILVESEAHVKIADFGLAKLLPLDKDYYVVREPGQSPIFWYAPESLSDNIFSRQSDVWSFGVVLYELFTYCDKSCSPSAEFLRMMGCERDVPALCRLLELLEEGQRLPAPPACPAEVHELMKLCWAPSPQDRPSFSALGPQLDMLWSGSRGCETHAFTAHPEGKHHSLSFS

One may read the IC50 as the concentration needed to halve the response being measured. For `C=CC(=O)N1CC[C@@H](F)[C@H](Oc2nc(Nc3cnn(CC)c3)nc3[nH]ccc23)C1` (racemic) [Example 1, 1-(trans-3-((2-((1-ethyl-1H-pyrazol-4-yl)amino)-7H-pyrrolo[2,3-d]pyrimidin-4-yl)oxy)-4-fluoropiperidin-1-yl)prop-2-en-1-one], the IC50 in experiment [1] is 67.4 nM; in experiment [2], 0.3 nM; in experiment [3] it was 2.4 nM.
For `C=CC(=O)N1CC[C@H](F)[C@H](Oc2nc(Nc3cnn(CC)c3)nc3[nH]ccc23)C1` (racemic) [Example 4, 1-(cis-3-((2-((1-ethyl-1H-pyrazol-4-yl)amino)-7H-pyrrolo[2,3-d]pyrimidin-4-yl)oxy)-4-fluoropiperidin-1-yl)prop-2-en-1-one], in that order: 115 nM, 0.4 nM and 4.2 nM.
Consider `C=CC(=O)N1CC[C@@H](F)[C@H](Oc2nc(Nc3cnn(CC)c3)nc3[nH]cc(Cl)c23)C1` (racemic) [Example 9, 1-(trans-3-((5-chloro-2-((1-ethyl-1H-pyrazol-4-yl)amino)-7H-pyrrolo[2,3-d]pyrimidin-4-yl)oxy)-4-fluoropiperidin-1-yl)prop-2-en-1-one], for which the figures for the IC50 in experiment [1], in experiment [2] and in experiment [3] were 72.3 nM, 0.3 nM and 2.1 nM, respectively.
For `C=CC(=O)N1CC[C@@H](F)[C@H](Oc2nc(Nc3cc(C)ns3)nc3[nH]cc(Cl)c23)C1` (racemic) [Example 11, 1-(trans-3-((5-chloro-2-((3-methylisothiazol-5-yl)amino)-7H-pyrrolo[2,3-d]pyrimidin-4-yl)oxy)-4-fluoropiperidin-1-yl)prop-2-en-1-one], in that order: 96 nM, 0.3 nM and 2.5 nM.
`C=CC(=O)N1CC[C@@H](F)[C@@H](Oc2nc(Nc3cnn(CC)c3)nc3[nH]ccc23)C1` [Example 5, 1-((3S,4R)-3-((2-((1-ethyl-1H-pyrazol-4-yl)amino)-7H-pyrrolo[2,3-d]pyrimidin-4-yl)oxy)-4-fluoropiperidin-1-yl)prop-2-en-1-one]: the IC50 in experiment [1] amounted to 101 nM; in experiment [2], 0.2 nM; in experiment [3] (setting [4]) it was 1.5 nM.
Take `C=CC(=O)N1CC[C@H](F)[C@@H](Oc2nc(Nc3cnn(CC)c3)nc3[nH]ccc23)C1` [Example 25, 1-((3S,4S)-3-((2-((1-ethyl-1H-pyrazol-4-yl)amino)-7H-pyrrolo[2,3-d]pyrimidin-4-yl)oxy)-4-fluoropiperidin-1-yl)prop-2-en-1-one]: the concentration for half-maximal inhibition (IC50) in experiment [1] is 32.3 nM; in experiment [2], 0.2 nM; in experiment [3] (setting [4]) it was 1.2 nM.
With `C=CC(=O)N1CC[C@@H](F)[C@@H](Oc2nc(Nc3cnn(CC)c3)nc3[nH]cc(F)c23)C1` [Example 27, 1-((3S,4R)-3-((2-((1-ethyl-1H-pyrazol-4-yl)amino)-5-fluoro-7H-pyrrolo[2,3-d]pyrimidin-4-yl)oxy)-4-fluoropiperidin-1-yl)prop-2-en-1-one], the IC50 came out at 2 nM in experiment [2] and 2.5 nM in experiment [3] (setting [4]).
For `C=CC(=O)N1CC[C@H](F)[C@H](Oc2nc(Nc3cnn(CC)c3)nc3[nH]ccc23)C1` [Example 28, 1-((3R,4S)-3-((2-((1-ethyl-1H-pyrazol-4-yl)amino)-7H-pyrrolo[2,3-d]pyrimidin-4-yl)oxy)-4-fluoropiperidin-1-yl)prop-2-en-1-one], in that order: 15.5 nM and > 400 nM.
On the same counts, the results for `C=CC(=O)N1CC[C@H](F)[C@H](Oc2nc(Nc3cnoc3)nc3[nH]ccc23)C1` [Example 29] are 152 nM and > 400 nM.
On the same counts, the results for `C=CC(=O)N1CC[C@@H](F)[C@@H](Oc2nc(Nc3cnn(CCO)c3)nc3[nH]ccc23)C1` [Example 30, 1-((3S,4R)-4-fluoro-3-((2-((1-(2-hydroxyethyl)-1H-pyrazol-4-yl)amino)-7H-pyrrolo[2,3-d]pyrimidin-4-yl)oxy)piperidin-1-yl)prop-2-en-1-one] are 0.3 nM and 2.4 nM.
With `C=CC(=O)N1CC[C@H](F)[C@H](Oc2nc(Nc3ccc(N4CCOCC4)cc3)nc3[nH]ccc23)C1` [Example 31, 1-((3R,4S)-4-fluoro-3-((2-((4-morpholinophenyl)amino)-7H-pyrrolo[2,3-d]pyrimidin-4-yl)oxy)piperidin-1-yl)prop-2-en-1-one], the IC50 in experiment [2] amounted to 206 nM. Also, the “BTK IC50” value in experiment [3] (recombinant purified human BTK, ATP 10 uM, Poly(Glu4,Tyr1) peptide, 1 hour 30° C.) is recorded as “No activity”.
For `C=CC(=O)N1CC[C@H](F)[C@H](Oc2nc(Nc3cc(C)ns3)nc3[nH]ccc23)C1` [Example 32, 1-((3R,4S)-4-fluoro-3-((2-((3-methylisothiazol-5-yl)amino)-7H-pyrrolo[2,3-d]pyrimidin-4-yl)oxy)piperidin-1-yl)prop-2-en-1-one], the IC50 is 83.6 nM in experiment [2] and > 400 nM in experiment [3] (setting [4]).
For `C=CC(=O)N1CC[C@H](F)[C@H](Oc2nc(Nc3cnn(C4CCOCC4)c3)nc3[nH]ccc23)C1` [Example 33, 1-((3R,4S)-4-fluoro-3-((2-((1-(tetrahydro-2H-pyran-4-yl)-1H-pyrazol-4-yl)amino)-7H-pyrrolo[2,3-d]pyrimidin-4-yl)oxy)piperidin-1-yl)prop-2-en-1-one], in that order: 9 nM and > 80 nM.
For `C=CC(=O)N1CC[C@H](F)[C@H](Oc2nc(Nc3ccc4ncsc4c3)nc3[nH]ccc23)C1` [Example 34, 1-((3R,4S)-3-((2-(benzo[d]thiazol-6-ylamino)-7H-pyrrolo[2,3-d]pyrimidin-4-yl)oxy)-4-fluoropiperidin-1-yl)prop-2-en-1-one], in that order: > 80 nM and > 400 nM.
